From the OPERA property sets (Mansouri et al. 2018)

Conditions: not given

Structure (SMILES)	ready biodegradability	log10 Henry constant (atm·m³/mol)	log10 Koc (L/kg)	log10 vapour pressure (mmHg)	melting point [°C]	boiling point [°C]	log10 biodegradation half-life (days)
C=C(Cl)CO	readily biodegradable	–	–	–	–	–	–
CN1CSC(=S)N(C)C1	not readily biodegradable	-9.58	1	-5.55	106	–	–
CCC(=O)OC(C)C	–	–	–	1.35	–	110	–
O=C(O)CCC(=O)c1ccc(C2CCCCC2)c(Cl)c1	–	–	–	–	163	–	–
CNP(=O)(OC)Oc1ccc(C(C)(C)C)cc1Cl (configuration not stated)	–	–	–	–	60	–	–
CCCCC1CCCCC1	–	–	–	0.119	-74.7	181	–
CN1C(CSCC(F)(F)F)Nc2cc(Cl)c(S(N)(=O)=O)cc2S1(=O)=O (configuration not stated)	–	–	–	–	214	–	–
Nc1ncc2ncn(COCCO)c2n1	–	–	–	–	189	–	–
OCCN1CCOCC1	readily biodegradable	–	–	–	-1.6	227	–
NNc1cc(Cl)ccc1Cl	–	–	–	–	102	–	–
FC(F)C(F)F	–	–	–	–	-89	-19.9	–
CC(C)C=CCl	–	–	–	–	–	87	–
O=Cc1cc(O)ccc1[N+](=O)[O-]	–	–	–	–	167	–	–
O=C(O)c1cc2ccccc2o1	–	–	–	–	192	312	–
Cc1ccc(NC(=O)N(C)C)cc1	–	–	1.51	–	–	–	–
Cc1ccc2cc(C)ccc2c1	–	–	–	-2.37	112	262	–
COc1ccc(OC)c(Cl)c1	not readily biodegradable	–	–	–	–	–	–
CCC(C)(C)c1cc(C)cc(C(C)(C)CC)c1O	–	–	–	–	–	283	–
CCN1CCCC1CNC(=O)c1cc(S(=O)(=O)CC)c(N)cc1OC (configuration not stated)	–	–	–	–	126	–	–
CCCCCCCCCCCCCBr	–	–	–	-2.87	6.2	296	–
OC(COc1ccccc1)COc1ccccc1	–	–	–	–	81.5	–	–
O=C(CCl)OC(=O)CCl	–	–	–	-1.43	46	203	–
O=CCC(O)[C@H](O)CO (stereo in doubt)	–	–	–	–	91	–	–

Structure (SMILES)	ready biodegradability	log10 Henry constant (atm·m³/mol)	log10 Koc (L/kg)	log10 vapour pressure (mmHg)	melting point [°C]	boiling point [°C]	log10 biodegradation half-life (days)
C[C@@H]1CC[C@H]2C(C)(C)[C@H]3C[C@@]12CC[C@@]3(C)O	–	–	–	–	86	–	–
CN1CC[C@]23c4c5ccc(O)c4O[C@H]2C(=O)CC[C@@]3(O)[C@H]1C5	–	–	–	–	248	–	–
CC(C(=O)O)c1ccc(C(=O)c2cccs2)cc1 (configuration not stated)	–	–	–	–	124	–	–
CC1CO1 (configuration not stated)	readily biodegradable	–	–	2.73	-112	35	–
COc1c(Cl)c(C)c2c(c1Cl)OC(=O)c1c(C)c(Cl)c(O)c(Cl)c1O2	–	–	–	–	232	–	–
CN(C)c1nc(N(C)C)nc(N(C)C)n1	–	–	–	–	173	–	–
C=CCCC#N	–	–	–	–	–	140	–
Cn1cccc1-c1cccnc1	–	–	–	–	–	281	–
CC(=O)c1ccco1	–	–	–	–	33	175	–
CSC(C)(C)C=NO	–	–	–	–	21	210	–
CC(=O)Oc1cc(C(C)C)c(OCCN(C)C)cc1C	–	–	–	–	144	–	–
O=c1cc[nH]c2ccccc12	–	–	–	–	201	–	–
Cc1ccc2ccc3ccc(C)nc3c2n1	–	–	–	–	160	–	–
CC(COc1ccc(Oc2ccccc2)cc1)Oc1ccccn1 (configuration not stated)	–	–	–	-5.66	46	–	–
O=C(Cl)/C=C/C(=O)Cl	–	–	–	0.316	–	159	–
O=CF	–	–	–	3.46	-142	-26.5	–
c1ccc2c(c1)CCCN2	–	–	–	–	20	251	–
Cc1cc(C(C)(C)C)c(C)cc1O	–	–	–	–	71.2	264	–
Clc1cccc(Cl)c1Oc1ccccc1	–	–	–	-2.89	–	–	–
CC(C)=CC(=O)C=C(C)C	–	–	–	-0.557	28	198	–
CN1CCN(C2=Nc3cc(Cl)ccc3Nc3ccccc32)CC1	–	–	–	–	184	–	–
O=C1c2ccccc2C(=O)c2c(O)cccc21	not readily biodegradable	–	–	-6.68	194	–	–
CCC=Cc1ccccc1	–	–	–	–	-43.1	199	–

Structure (SMILES)	ready biodegradability	log10 Henry constant (atm·m³/mol)	log10 Koc (L/kg)	log10 vapour pressure (mmHg)	melting point [°C]	boiling point [°C]	log10 biodegradation half-life (days)
ClC(Cl)(Cl)CC(Cl)(Cl)Cl	–	–	–	–	-27	206	–
CC(Br)CCBr (configuration not stated)	–	–	–	–	–	174	–
Nc1cc(-c2ccccc2)ccc1O	–	–	–	–	200	–	–
O=c1c(O)c(-c2ccccc2)oc2ccccc12	–	–	–	–	172	–	–
CCN(CC)c1ccc(Br)cc1	–	–	–	–	38	270	–
N#CCCO	–	–	–	-1.1	-46	221	–
CCOc1ccc(CC(=O)O)cc1	–	–	–	–	88.5	–	–
Cc1nccc2c1[nH]c1ccccc12	–	–	–	–	236	–	–
CCOC(=O)CS	–	–	–	–	–	157	–
CC(=O)Oc1ccccc1OC(C)=O	–	–	–	–	64.5	–	–
O=C(O)c1ccccc1I	not readily biodegradable	–	–	–	163	–	–
C1C2CC3C4CC5CC(C14)C(C2)C3C5	–	–	–	–	–	–	3.3
CCOC(=O)/C=C1/SC(N2CCCCC2)C(=O)N1C (configuration not stated)	–	–	–	–	140	–	–
CCC(=O)c1ccc(Br)cc1	–	–	–	–	48	–	–
CCCCCCCCCCCCCCCCCCCCCCCCCCO	readily biodegradable	–	–	–	80	–	–
O=C1OCCC1N(C(=O)C1CC1)c1cccc(Cl)c1 (configuration not stated)	–	–	–	–	95	–	–
CCC(C)CC(CC)CC (configuration not stated)	–	–	–	–	–	158	–
O=C(O)c1c(F)c(F)c(F)c(F)c1C(=O)O	–	–	–	–	163	–	–
C=C(C)C(=O)OCCOCCOCCOCCOC(=O)C(=C)C	–	–	–	–	–	220	–
CCOC(=O)NNC(=O)OCC	–	–	–	–	135	–	–
CC(C)CC(C)(C)C(C)C	–	–	–	–	–	153	–
OCCN1CN(CCO)CN(CCO)C1	readily biodegradable	–	–	–	–	–	–
C1=CSCC1	–	–	–	–	–	112	–

Structure (SMILES)	ready biodegradability	log10 Henry constant (atm·m³/mol)	log10 Koc (L/kg)	log10 vapour pressure (mmHg)	melting point [°C]	boiling point [°C]	log10 biodegradation half-life (days)
O=c1cc(-c2ccccc2)oc2cc(O)cc(O)c12	–	–	–	–	286	–	–
CCCCCC[C@@H](O)C/C=C\CCCCCCCC(=O)O	–	–	–	–	5.5	–	–
Cc1c2ccccc2c(C)c2ccccc12	–	–	–	–	183	–	–
CCCc1cccc(O)c1	–	–	–	–	26	228	–
O=Cc1ccc(O)cc1	readily biodegradable	-9.29	–	-3.95	117	310	–
COc1cc(CCCO)ccc1O	–	–	–	–	65	–	–
CCCCCCN(CCCCCC)C(=O)COC(=O)c1ccccc1	–	–	–	–	162	–	–
FC(F)(F)C(F)(F)C(F)(F)C(F)(F)F	–	–	–	3.3	-128	-1.9	–
COc1cc(C#N)cc(OC)c1OC	–	–	–	–	93.8	–	–
Cc1cccc(N(C)C(=S)Oc2ccc3ccccc3c2)c1	–	–	–	–	111	–	–
O=C(O)CCCCCCCCCCF	–	–	–	–	36	–	–
C=C(Cl)C(=C)Cl	–	–	–	–	–	98	–
CN(C)CCN(C)CCN(C)C	not readily biodegradable	–	–	–	–	–	–
O=C(Nc1ccc(Cl)c(Cl)c1)Nc1cc(Cl)ccc1Oc1ccc(Cl)cc1S(=O)(=O)[O-].[Na+]	–	–	–	–	223	–	–
CCCCCCCC/C=C/CCCCCCCC(=O)O	–	–	–	–	29.2	–	–
NC(=O)c1cc(Cl)cc(Cl)c1N	–	–	–	–	162	–	–
FC(F)(Cl)C(Cl)(Cl)Cl	–	–	–	1.78	40.6	91.5	–
ClC1CCCCC1	not readily biodegradable	–	–	0.828	-44	142	–
N#Cc1cc(Br)c(O)c(Br)c1	readily biodegradable	–	–	-7.33	190	–	–
CC(=O)O[Si](C)(OC(C)=O)OC(C)=O	–	–	–	–	40.5	–	–
C#CCOC(=O)/C=C(C)/C=C/CC(C)CCCC(C)C (configuration not stated)	–	–	–	-5.14	–	–	–
CCc1ccc(C)cc1	–	–	–	0.477	-62.3	162	0.602

Same assay, conditions: fish

Structure (SMILES)	log10 BCF	log10 biotransformation half-life (days)
O=C1c2ccccc2C(=O)c2c(O)cccc21	2.25	–
Clc1ccc2c(c1)Oc1ccc(Cl)cc1O2	2.54	0.23
ClC1CCCCC1	2.34	0.41
